Experimental data: ChEMBL document CHEMBL5104103 (J Med Chem, 2022); call rule not given here
≈ marks a conversion by molar mass, not a printed value.

Tests used:
[1] = Inhibition of anti-IgM-stimulated CD20+ B cell activation in human whole blood assessed as measuring CD69 expression level pretreated for 1 hr followed by anti-IgM stimulation measured after 18 hrs by flow cytometry
[2] = Permeability across apical to basolateral membrane in human Caco-2 cells; type: ADME, cell-based; conditions: read-out: permeability
[3] = Permeability across basolateral to apical membrane in human Caco-2 cells; type: ADME, cell-based; conditions: read-out: permeability
[4] = Solubility of compound in PBS at pH 7 by LCMS/MS analysis; type: physicochemical
[5] = Oral bioavailability in rat at 20 mg/kg; type: ADME, organism-based; conditions: in vivo
[6] = Cmax in rat at 20 mg/kg, po or 2 mg/kg, iv; type: ADME, organism-based; set-up: dose 20 mg/kg, route po; conditions: in vivo
[7] = Clearance in rat at 2 mg/kg, iv; type: ADME, organism-based; conditions: in vivo
[8] = AUC in rat at 20 mg/kg, po or 2 mg/kg, iv; type: ADME, organism-based; set-up: dose 20 mg/kg, route po; conditions: in vivo, read-out: AUC
[9] = Clearance in human liver S9 fraction assessed as measuring per mg protein by LCMS/MS analysis; type: ADME, subcellular; conditions: read-out: CLH
[10] = target: T1, Tyrosine-protein kinase TXK (Homo sapiens, UniProt P42681); assay: Inhibition of RLK (unknown origin) using peptide substrate in presence of ATP
T1 sequence (P42681 whole entry): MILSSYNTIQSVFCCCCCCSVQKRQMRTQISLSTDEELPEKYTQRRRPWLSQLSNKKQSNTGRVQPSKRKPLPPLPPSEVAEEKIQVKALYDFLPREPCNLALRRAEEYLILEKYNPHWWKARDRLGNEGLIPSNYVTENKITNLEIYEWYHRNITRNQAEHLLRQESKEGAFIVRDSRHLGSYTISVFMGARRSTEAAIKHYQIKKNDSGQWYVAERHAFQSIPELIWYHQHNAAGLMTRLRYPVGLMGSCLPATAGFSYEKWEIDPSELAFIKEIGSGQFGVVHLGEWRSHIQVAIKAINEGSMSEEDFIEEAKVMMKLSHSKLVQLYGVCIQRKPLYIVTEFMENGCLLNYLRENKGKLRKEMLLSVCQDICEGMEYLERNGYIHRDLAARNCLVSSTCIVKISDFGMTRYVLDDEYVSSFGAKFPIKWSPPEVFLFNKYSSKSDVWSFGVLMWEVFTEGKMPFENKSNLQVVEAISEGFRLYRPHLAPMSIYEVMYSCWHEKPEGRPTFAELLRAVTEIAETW

[11] = target: T2, Tyrosine-protein kinase Tec (Homo sapiens, UniProt P42680); assay: Inhibition of TEC (unknown origin) using peptide substrate in presence of ATP
T2 sequence (P42680 whole entry): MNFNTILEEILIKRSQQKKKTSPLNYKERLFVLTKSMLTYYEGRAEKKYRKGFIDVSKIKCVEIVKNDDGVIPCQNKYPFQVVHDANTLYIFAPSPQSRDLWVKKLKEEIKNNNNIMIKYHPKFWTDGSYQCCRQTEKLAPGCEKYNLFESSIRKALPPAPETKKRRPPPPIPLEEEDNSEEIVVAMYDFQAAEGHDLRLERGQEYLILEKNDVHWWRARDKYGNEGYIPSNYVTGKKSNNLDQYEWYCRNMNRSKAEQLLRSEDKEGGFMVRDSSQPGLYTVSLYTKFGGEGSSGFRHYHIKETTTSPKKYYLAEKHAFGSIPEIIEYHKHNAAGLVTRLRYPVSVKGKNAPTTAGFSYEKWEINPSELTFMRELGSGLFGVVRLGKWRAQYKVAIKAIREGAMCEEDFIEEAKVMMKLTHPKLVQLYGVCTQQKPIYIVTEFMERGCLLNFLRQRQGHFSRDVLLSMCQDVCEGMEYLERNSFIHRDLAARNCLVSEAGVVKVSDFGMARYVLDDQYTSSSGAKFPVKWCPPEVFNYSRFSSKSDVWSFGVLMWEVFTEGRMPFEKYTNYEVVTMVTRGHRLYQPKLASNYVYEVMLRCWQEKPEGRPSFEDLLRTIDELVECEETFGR

[12] = target: T3, Cytoplasmic tyrosine-protein kinase BMX (Homo sapiens, UniProt P51813); assay: Inhibition of BMX (unknown origin) using peptide substrate in presence of ATP
T3 sequence (P51813 whole entry): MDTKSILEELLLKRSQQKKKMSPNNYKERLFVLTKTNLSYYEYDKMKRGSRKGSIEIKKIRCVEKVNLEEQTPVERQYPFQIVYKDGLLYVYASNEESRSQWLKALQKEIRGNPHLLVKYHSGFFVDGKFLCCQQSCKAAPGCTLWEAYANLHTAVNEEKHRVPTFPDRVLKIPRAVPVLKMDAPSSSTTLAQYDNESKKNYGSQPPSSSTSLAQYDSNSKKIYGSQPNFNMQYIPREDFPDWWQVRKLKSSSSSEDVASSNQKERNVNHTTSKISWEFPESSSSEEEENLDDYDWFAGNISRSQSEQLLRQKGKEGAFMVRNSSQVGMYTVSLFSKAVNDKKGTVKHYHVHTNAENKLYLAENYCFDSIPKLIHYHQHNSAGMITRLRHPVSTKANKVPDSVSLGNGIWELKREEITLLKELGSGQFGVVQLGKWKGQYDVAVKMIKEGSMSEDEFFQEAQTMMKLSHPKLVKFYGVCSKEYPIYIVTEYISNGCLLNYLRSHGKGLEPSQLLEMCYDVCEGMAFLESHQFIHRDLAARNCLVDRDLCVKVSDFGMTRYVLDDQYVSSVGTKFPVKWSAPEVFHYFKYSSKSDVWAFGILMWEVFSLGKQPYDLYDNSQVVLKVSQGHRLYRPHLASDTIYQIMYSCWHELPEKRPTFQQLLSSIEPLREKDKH

[13] = target: Tyrosine-protein kinase Blk (Homo sapiens, UniProt P51451); assay: Inhibition of BLK (unknown origin) using peptide substrate in presence of ATP
Tyrosine-protein kinase Blk, sequence (P51451 whole entry): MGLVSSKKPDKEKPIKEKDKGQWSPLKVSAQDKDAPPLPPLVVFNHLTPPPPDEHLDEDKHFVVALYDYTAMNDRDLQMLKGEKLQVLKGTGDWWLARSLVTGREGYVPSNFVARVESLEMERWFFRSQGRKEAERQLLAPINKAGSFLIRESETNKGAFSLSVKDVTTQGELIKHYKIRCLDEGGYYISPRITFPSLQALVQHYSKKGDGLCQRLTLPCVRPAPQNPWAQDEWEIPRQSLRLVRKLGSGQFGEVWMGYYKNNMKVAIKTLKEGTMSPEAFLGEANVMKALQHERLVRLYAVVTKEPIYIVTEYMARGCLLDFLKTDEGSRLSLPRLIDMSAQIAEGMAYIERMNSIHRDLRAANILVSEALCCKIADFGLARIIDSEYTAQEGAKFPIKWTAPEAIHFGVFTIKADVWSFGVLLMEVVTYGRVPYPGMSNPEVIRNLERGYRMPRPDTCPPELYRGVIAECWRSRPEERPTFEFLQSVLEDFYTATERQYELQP

[14] = Drug concentration in plasma of collagen-induced arthritis Lewis rat model 20 mg/kg measured after 1 hr post-collection of plasma; type: ADME, organism-based
[15] = Drug concentration in plasma of collagen-induced arthritis Lewis rat model 20 mg/kg measured after 4 hrs post-collection of plasma; type: ADME, organism-based
[16] = Drug concentration in plasma of collagen-induced arthritis Lewis rat model 20 mg/kg measured after 12 hrs post-collection of plasma; type: ADME, organism-based
[17] = Drug concentration in plasma of collagen-induced arthritis Lewis rat model 20 mg/kg measured after 24 hrs post-collection of plasma; type: ADME, organism-based; conditions: in vivo, BLD = below limit of detection
[18] = target: Voltage-gated inwardly rectifying potassium channel KCNH2 (Homo sapiens, UniProt Q12809); assay: Inhibition of hERG; type: toxicity
Voltage-gated inwardly rectifying potassium channel KCNH2, sequence (Q12809 whole entry): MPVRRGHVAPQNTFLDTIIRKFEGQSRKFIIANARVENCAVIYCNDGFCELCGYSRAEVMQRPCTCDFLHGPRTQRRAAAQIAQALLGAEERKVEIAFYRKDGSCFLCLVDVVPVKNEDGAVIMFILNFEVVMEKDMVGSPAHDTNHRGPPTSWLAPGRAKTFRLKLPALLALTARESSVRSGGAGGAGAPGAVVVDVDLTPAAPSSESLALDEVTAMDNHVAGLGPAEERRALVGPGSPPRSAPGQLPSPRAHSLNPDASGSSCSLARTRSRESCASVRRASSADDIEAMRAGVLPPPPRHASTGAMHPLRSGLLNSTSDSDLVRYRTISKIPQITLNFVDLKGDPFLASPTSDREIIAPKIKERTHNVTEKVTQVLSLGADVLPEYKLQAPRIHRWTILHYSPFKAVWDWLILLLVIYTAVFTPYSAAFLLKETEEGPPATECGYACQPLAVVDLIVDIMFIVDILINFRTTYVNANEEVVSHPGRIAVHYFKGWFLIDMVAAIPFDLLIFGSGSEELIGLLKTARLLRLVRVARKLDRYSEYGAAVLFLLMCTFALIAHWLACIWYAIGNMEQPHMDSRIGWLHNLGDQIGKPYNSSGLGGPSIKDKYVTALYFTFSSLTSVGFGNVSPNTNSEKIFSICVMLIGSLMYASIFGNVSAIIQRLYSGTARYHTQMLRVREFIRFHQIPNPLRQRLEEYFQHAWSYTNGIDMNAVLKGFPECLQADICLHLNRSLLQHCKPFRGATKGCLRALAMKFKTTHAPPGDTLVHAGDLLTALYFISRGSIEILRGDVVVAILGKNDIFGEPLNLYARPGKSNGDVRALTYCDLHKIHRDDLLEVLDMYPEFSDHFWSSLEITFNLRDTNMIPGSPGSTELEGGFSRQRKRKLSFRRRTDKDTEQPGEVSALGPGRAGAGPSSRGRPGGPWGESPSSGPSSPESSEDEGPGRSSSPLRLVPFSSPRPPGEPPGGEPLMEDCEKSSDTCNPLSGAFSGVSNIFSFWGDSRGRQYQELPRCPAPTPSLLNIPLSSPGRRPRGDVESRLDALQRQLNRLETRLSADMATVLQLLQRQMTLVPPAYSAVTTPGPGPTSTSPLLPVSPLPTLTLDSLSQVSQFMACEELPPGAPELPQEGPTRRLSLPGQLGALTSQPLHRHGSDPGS

Row | SMILES | IC50 [1] [nM] | Papp A→B [2] [×10⁻⁶ cm/s] | Papp B→A [3] [×10⁻⁶ cm/s] | solubility [4] [µM] | microsomal CLint [9] [µL/min/mg] | also measured
1 | CC(=O)N1CCN(C(C)(C)/C=C(\C#N)C(=O)N2CCC[C@@H](n3nc(-c4ccc(Oc5ccccc5)cc4F)c4c(N)ncnc43)C2)CC1 | 193 | 0.6 | 22 | 31 (≈ 20.2 µg/mL) | – | –
2 | C[C@@H]1CN(C(C)(C)/C=C(\C#N)C(=O)N2CCC[C@@H](n3nc(-c4ccc(Oc5ccccc5)cc4F)c4c(N)ncnc43)C2)C[C@H](C)N1 | 442 | – | – | – | – | –
3 | CC(C)(/C=C(\C#N)C(=O)N1CCC[C@@H](n2nc(-c3ccc(Oc4ccccc4)cc3F)c3c(N)ncnc32)C1)N1CCN(C2COC2)CC1 [RILZABRUTINIB] | 123 | 1.7 | 5.3 | 125 (≈ 83.2 µg/mL) | 23 | bioavailability [5]: 12.3%; Cmax [6]: 270 ng/mL; clearance [7]: 66 mL/min/kg; AUC [8]: 622 ng·h/mL; IC50 [10]: 1.2 nM; IC50 [11]: 0.8 nM; IC50 [12]: 1 nM; IC50 [13]: 6.3 nM; concentration at 1 h [14]: 128 ng/mL; concentration at 4 h [15]: 106 ng/mL; concentration at 12 h [16]: 4.6 ng/mL; Cp [17]: Bld
4 | CC(C)(/C=C(\C#N)C(=O)N1CCC[C@@H](n2nc(-c3ccc(Oc4ccccc4)cc3F)c3c(N)ncnc32)C1)N1CCNC(=O)C1 | 381 | 1 | 25.8 | – | – | –
5 | CC(C)(/C=C(\C#N)C(=O)N1CCC[C@@H](n2nc(-c3ccc(Oc4ccccc4)cc3F)c3c(N)ncnc32)C1)N1CCOCC1 | 16.7 | – | – | – | – | –
6 | CC(C)(/C=C(\C#N)C(=O)N1CCC[C@@H](n2nc(-c3ccc(Oc4ccccc4)cc3F)c3c(N)ncnc32)C1)CO | 821 | – | – | – | – | –
7 | CC(C)(N)/C=C(\C#N)C(=O)N1CCC[C@@H](n2nc(-c3ccc(Oc4ccccc4)cc3F)c3c(N)ncnc32)C1 | 360 | – | – | – | – | –
8 | CC1(/C=C(\C#N)C(=O)N2CCC[C@@H](n3nc(-c4ccc(Oc5ccccc5)cc4F)c4c(N)ncnc43)C2)COC1 | 224 | – | – | – | – | –
9 | CN1CCN(C(C)(C)/C=C(\C#N)C(=O)N2CCC[C@@H](n3nc(-c4ccc(Oc5ccccc5)cc4F)c4c(N)ncnc43)C2)CC1=O | 130 | 0.4 | 5.5 | 90 (≈ 57.4 µg/mL) | 80 | bioavailability [5]: 10.9%; Cmax [6]: 345 ng/mL; clearance [7]: 73 mL/min/kg; AUC [8]: 528 ng·h/mL
10 | CC(C)(/C=C(\C#N)C(=O)N1CCC[C@@H](n2nc(-c3ccc(Oc4ccccc4)cc3F)c3c(N)ncnc32)C1)N1CCNCC1 | 401 | 0.07 | 3.4 | 238 (≈ 145 µg/mL) | – | –
11 | C[C@@H]1CN(C(C)(C)/C=C(\C#N)C(=O)N2CCC[C@@H](n3nc(-c4ccc(Oc5ccccc5)cc4F)c4c(N)ncnc43)C2)C[C@H](C)N1C | 128 | 0.3 | 2.5 | 263 (≈ 171 µg/mL) | 14 | bioavailability [5]: 67%; Cmax [6]: 392 ng/mL; clearance [7]: 91 mL/min/kg; AUC [8]: 2460 ng·h/mL; inhibition (INH) [18]: Active
12 | CN(C)C(C)(C)/C=C(\C#N)C(=O)N1CCC[C@@H](n2nc(-c3ccc(Oc4ccccc4)cc3F)c3c(N)ncnc32)C1 | 158 | – | – | – | – | –
13 | N#C/C(=C/C1CC1)C(=O)N1CCC[C@@H]1Cn1nc(-c2ccc(Oc3ccccc3)cc2F)c2c(N)ncnc21 | 196 | – | – | – | – | –
14 | COCCN1CCN(C(C)(C)/C=C(\C#N)C(=O)N2CCC[C@@H](n3nc(-c4ccc(Oc5ccccc5)cc4F)c4c(N)ncnc43)C2)CC1 | 169 | 0.2 | 6 | 210 (≈ 140 µg/mL) | 49 | –
15 | COC(=O)N1CCN(C(C)(C)/C=C(\C#N)C(=O)N2CCC[C@@H](n3nc(-c4ccc(Oc5ccccc5)cc4F)c4c(N)ncnc43)C2)CC1 | 179 | 3.2 | 24 | 1.1 (≈ 0.735 µg/mL) | 68 | bioavailability [5]: 11.5%; Cmax [6]: 142 ng/mL; clearance [7]: 89 mL/min/kg; AUC [8]: 432 ng·h/mL
